One block for each compound: values may come before it. Calls of active or inactive are those of the source.
What was measured:
[1] = target: T1, High affinity choline transporter 1 (Homo sapiens, UniProt Q9GZV3); experiment: CHT inhibitors, dose response, cell-based, 5-point CRC, membrane potential dye (AID 504840); assay type: functional
T1 sequence (Q9GZV3 whole entry): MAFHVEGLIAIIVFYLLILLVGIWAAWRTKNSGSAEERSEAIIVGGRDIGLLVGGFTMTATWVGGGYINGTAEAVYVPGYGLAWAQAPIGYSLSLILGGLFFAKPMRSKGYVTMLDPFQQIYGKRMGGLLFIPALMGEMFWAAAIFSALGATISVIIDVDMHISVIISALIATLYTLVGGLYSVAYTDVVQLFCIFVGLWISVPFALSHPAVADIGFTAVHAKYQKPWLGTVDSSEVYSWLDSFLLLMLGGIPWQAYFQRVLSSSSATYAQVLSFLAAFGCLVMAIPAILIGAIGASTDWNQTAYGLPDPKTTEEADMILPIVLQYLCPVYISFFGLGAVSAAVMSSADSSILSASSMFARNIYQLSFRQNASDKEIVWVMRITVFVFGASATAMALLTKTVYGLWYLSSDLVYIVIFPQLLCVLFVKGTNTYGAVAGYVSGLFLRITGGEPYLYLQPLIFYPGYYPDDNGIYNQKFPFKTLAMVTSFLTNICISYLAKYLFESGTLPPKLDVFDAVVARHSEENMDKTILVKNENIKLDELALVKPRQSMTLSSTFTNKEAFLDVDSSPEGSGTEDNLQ

[2] = target: Voltage-dependent T-type calcium channel subunit alpha-1H (Homo sapiens, UniProt O95180); assay type: functional;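 further: channel activity triggered by adding a high calcium stimulation buffer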
[3] = target: T2, Protein skinhead-1 (Caenorhabditis elegans, UniProt P34707); assay type: functional
T2 sequence (P34707 whole entry): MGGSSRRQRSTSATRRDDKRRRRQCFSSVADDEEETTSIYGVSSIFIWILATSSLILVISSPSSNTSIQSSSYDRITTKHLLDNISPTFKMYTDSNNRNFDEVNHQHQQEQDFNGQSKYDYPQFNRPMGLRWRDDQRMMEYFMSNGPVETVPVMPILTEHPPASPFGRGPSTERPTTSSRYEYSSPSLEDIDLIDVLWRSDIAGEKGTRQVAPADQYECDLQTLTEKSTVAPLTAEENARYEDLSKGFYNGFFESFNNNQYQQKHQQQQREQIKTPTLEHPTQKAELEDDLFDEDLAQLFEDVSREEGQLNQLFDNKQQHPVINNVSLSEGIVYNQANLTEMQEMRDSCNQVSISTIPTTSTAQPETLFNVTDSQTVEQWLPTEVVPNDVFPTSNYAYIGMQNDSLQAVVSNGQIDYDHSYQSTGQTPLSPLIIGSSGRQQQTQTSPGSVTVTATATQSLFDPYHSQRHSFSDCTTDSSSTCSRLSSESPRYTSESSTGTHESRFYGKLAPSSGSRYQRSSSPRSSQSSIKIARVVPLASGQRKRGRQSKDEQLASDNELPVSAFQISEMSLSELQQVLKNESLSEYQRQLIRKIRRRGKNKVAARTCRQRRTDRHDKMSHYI

[4] = target: T3, Fatty acid synthase (Homo sapiens, UniProt P49327); experiment: FAS thioesterase domain inhibitors, dose response, biochemical, kinetic fluorescence intensity (AID 624326); assay type: functional;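 further: rate of fluorescence rise from hydrolysis of a fluorogenic O-methyl fluorescein ester substrate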
[5] = target: T3, Fatty acid synthase; experiment: FAS thioesterase domain inhibitors, dose response, biochemical, endpoint fluorescence intensity, uHTS hits (AID 624327); assay type: functional;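 further: fluorescence from hydrolysis of an O-methyl fluorescein acyl ester substrate by the enzyme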
[6] = target: T4, Coagulation factor XII (Homo sapiens, UniProt P00748); assay type: functional;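 further: activated factor XIIa alpha cleaving a fluorogenic AMC peptide substrate; inhibitor potency from loss of enzyme activity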
T4 sequence (P00748 whole entry): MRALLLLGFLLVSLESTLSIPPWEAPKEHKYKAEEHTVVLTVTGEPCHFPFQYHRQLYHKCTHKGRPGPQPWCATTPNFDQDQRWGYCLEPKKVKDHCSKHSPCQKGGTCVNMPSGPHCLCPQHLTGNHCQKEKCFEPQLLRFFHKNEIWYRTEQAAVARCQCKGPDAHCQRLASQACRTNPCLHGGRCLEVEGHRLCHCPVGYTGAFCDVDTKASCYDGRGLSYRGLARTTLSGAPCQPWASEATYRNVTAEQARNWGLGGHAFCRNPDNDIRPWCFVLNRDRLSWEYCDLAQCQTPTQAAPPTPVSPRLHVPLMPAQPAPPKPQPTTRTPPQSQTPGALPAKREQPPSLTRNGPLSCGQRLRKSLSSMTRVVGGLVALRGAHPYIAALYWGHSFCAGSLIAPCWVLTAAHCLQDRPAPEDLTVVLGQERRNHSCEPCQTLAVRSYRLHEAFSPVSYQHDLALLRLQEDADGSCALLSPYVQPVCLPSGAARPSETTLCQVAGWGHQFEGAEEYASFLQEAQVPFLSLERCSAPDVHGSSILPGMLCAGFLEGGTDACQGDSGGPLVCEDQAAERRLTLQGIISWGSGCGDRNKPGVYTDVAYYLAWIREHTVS

[7] = target: T5, Carboxy-terminal domain RNA polymerase II polypeptide A small phosphatase 1 (Homo sapiens, UniProt Q9GZU7); experiment: inhibitors of CTDSP1, concentration-response testing, biochemical assay, absorbance-based, actives from ultra-high-throughput screening (AID 540297); assay type: functional
T5 sequence (Q9GZU7 whole entry): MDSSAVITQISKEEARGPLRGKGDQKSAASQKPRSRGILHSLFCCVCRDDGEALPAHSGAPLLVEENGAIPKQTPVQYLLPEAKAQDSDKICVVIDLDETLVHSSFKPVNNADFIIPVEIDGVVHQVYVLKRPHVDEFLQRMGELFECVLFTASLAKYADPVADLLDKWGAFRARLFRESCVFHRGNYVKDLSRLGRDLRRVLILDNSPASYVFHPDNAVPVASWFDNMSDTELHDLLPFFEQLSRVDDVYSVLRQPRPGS

[8] = target: Heat shock protein HSP 90-alpha (Homo sapiens, UniProt P07900); assay type: functional, organism-based
[9] = target: T6, Corticotropin-releasing factor receptor 2/Corticotropin-releasing factor-binding protein (Homo sapiens, UniProt P24387+Q13324); experiment: activators of CRF receptor 2 with binding protein – uHTS hits, confirmation (AID 602473); assay type: functional; conditions: read-out: EC50_Mean
T6 sequence (Q13324 whole entry): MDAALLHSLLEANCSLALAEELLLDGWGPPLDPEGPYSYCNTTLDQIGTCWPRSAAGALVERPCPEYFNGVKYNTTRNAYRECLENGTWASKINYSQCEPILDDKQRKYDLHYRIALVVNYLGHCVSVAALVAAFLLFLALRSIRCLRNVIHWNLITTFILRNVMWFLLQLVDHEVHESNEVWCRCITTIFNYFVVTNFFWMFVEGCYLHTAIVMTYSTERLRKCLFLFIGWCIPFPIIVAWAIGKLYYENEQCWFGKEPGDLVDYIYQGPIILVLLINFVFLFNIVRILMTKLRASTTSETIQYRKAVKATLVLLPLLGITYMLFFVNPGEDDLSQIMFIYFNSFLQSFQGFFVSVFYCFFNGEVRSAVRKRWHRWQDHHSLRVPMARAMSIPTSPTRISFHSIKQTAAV
T6 sequence (P24387 whole entry): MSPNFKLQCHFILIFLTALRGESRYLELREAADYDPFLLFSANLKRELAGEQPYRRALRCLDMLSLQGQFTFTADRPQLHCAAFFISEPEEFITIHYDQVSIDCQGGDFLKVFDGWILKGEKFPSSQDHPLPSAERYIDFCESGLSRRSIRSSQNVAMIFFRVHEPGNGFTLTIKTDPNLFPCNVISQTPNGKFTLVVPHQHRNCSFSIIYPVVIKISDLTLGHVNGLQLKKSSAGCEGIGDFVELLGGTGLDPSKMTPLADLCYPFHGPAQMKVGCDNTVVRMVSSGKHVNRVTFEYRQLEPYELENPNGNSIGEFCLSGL

[10] = Luminescence Cell-Based Dose Retest to Confirm Inhibitors of Cancer Stem Cells. [Related pubchem assays (depositor defined):AID2717, AID2721]; assay type: functional; conditions: Homo sapiens
[11] = target: T7, Rac GTPase-activating protein 1 (Homo sapiens, UniProt Q9H0H5); experiment: MgcRacGAP GTPase-activating activity inhibitors, confirmation, biochemical, ADP Hunter fluorescence, primary and confirmatory (AID 624330); assay type: functional
T7 sequence (Q9H0H5 whole entry): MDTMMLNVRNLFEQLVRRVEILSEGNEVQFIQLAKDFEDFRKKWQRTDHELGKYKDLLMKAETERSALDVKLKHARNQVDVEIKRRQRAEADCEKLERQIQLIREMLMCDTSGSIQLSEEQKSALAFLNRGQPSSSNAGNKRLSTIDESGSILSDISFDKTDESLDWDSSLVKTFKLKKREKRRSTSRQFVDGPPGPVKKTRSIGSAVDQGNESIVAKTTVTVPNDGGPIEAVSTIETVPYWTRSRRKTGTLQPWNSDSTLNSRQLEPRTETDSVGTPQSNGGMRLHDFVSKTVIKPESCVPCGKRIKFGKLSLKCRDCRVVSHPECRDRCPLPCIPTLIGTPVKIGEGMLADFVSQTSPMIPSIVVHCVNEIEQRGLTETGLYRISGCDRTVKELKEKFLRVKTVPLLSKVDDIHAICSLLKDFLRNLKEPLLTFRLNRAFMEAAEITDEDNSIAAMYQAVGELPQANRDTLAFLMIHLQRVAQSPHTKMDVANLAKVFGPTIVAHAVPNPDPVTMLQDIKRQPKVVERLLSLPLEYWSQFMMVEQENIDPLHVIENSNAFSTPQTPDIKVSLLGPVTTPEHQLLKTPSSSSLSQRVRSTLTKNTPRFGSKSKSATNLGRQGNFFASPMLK

T3 sequence (P49327 whole entry, the tested form may be a part): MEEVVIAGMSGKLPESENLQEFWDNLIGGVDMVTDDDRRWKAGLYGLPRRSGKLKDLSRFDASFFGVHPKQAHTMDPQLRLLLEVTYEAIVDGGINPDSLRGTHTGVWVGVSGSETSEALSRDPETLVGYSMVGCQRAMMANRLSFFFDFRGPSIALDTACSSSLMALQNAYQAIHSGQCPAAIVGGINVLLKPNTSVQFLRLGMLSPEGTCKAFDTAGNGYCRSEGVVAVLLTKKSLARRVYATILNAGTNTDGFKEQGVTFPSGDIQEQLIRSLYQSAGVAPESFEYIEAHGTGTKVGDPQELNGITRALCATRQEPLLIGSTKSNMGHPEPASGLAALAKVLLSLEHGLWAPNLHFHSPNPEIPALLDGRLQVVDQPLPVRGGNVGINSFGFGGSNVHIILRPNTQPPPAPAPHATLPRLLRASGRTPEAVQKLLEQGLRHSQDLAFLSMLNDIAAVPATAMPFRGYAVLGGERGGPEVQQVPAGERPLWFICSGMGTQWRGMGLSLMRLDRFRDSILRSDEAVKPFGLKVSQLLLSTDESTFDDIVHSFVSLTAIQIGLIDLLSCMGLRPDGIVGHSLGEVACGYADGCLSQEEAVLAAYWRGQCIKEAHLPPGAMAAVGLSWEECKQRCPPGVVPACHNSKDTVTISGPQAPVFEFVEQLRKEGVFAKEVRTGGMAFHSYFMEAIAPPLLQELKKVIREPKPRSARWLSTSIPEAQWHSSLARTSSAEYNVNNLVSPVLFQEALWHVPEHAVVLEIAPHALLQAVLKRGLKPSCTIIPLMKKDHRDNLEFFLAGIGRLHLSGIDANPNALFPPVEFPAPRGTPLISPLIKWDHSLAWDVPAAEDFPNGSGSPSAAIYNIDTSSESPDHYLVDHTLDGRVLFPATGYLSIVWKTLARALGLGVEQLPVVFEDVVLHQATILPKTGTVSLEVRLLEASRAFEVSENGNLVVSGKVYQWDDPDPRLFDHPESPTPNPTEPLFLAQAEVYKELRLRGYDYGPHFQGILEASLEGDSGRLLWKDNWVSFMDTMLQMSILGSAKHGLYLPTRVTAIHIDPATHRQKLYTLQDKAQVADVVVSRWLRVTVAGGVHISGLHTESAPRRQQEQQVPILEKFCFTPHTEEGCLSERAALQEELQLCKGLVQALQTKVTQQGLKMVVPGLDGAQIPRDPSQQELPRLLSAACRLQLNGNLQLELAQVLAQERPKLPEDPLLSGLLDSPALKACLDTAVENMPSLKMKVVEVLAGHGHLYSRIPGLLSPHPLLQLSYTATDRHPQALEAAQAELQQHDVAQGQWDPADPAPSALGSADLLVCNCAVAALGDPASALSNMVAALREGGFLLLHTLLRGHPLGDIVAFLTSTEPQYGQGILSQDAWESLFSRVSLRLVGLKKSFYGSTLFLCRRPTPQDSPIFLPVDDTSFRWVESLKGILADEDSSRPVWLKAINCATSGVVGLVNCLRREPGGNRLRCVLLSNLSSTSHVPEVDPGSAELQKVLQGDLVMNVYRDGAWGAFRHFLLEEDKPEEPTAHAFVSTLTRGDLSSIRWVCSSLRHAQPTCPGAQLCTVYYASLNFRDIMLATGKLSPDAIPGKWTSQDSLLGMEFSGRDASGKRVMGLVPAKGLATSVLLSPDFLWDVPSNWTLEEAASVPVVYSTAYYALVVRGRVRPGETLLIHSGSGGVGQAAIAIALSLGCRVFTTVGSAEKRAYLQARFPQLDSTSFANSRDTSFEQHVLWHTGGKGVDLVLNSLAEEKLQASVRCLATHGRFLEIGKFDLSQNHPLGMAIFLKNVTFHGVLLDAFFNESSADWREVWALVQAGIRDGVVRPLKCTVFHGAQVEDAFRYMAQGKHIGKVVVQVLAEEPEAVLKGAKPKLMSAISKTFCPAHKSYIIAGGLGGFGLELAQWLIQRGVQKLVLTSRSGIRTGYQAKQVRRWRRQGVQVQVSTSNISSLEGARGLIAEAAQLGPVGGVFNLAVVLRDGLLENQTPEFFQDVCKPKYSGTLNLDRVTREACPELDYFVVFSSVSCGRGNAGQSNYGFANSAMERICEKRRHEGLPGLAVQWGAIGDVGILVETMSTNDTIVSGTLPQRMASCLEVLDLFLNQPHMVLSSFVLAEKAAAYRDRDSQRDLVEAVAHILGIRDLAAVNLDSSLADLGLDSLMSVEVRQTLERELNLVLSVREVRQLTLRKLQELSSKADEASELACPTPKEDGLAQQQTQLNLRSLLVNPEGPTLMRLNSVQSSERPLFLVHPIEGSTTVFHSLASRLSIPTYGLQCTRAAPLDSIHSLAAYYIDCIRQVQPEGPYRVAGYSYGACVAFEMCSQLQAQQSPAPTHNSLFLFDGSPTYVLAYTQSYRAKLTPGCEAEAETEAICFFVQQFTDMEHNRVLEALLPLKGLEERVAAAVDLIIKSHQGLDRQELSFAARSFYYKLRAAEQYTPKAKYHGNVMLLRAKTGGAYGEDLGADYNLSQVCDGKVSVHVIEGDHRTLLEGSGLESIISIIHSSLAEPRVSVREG
Voltage-dependent T-type calcium channel subunit alpha-1H, sequence (O95180 whole entry): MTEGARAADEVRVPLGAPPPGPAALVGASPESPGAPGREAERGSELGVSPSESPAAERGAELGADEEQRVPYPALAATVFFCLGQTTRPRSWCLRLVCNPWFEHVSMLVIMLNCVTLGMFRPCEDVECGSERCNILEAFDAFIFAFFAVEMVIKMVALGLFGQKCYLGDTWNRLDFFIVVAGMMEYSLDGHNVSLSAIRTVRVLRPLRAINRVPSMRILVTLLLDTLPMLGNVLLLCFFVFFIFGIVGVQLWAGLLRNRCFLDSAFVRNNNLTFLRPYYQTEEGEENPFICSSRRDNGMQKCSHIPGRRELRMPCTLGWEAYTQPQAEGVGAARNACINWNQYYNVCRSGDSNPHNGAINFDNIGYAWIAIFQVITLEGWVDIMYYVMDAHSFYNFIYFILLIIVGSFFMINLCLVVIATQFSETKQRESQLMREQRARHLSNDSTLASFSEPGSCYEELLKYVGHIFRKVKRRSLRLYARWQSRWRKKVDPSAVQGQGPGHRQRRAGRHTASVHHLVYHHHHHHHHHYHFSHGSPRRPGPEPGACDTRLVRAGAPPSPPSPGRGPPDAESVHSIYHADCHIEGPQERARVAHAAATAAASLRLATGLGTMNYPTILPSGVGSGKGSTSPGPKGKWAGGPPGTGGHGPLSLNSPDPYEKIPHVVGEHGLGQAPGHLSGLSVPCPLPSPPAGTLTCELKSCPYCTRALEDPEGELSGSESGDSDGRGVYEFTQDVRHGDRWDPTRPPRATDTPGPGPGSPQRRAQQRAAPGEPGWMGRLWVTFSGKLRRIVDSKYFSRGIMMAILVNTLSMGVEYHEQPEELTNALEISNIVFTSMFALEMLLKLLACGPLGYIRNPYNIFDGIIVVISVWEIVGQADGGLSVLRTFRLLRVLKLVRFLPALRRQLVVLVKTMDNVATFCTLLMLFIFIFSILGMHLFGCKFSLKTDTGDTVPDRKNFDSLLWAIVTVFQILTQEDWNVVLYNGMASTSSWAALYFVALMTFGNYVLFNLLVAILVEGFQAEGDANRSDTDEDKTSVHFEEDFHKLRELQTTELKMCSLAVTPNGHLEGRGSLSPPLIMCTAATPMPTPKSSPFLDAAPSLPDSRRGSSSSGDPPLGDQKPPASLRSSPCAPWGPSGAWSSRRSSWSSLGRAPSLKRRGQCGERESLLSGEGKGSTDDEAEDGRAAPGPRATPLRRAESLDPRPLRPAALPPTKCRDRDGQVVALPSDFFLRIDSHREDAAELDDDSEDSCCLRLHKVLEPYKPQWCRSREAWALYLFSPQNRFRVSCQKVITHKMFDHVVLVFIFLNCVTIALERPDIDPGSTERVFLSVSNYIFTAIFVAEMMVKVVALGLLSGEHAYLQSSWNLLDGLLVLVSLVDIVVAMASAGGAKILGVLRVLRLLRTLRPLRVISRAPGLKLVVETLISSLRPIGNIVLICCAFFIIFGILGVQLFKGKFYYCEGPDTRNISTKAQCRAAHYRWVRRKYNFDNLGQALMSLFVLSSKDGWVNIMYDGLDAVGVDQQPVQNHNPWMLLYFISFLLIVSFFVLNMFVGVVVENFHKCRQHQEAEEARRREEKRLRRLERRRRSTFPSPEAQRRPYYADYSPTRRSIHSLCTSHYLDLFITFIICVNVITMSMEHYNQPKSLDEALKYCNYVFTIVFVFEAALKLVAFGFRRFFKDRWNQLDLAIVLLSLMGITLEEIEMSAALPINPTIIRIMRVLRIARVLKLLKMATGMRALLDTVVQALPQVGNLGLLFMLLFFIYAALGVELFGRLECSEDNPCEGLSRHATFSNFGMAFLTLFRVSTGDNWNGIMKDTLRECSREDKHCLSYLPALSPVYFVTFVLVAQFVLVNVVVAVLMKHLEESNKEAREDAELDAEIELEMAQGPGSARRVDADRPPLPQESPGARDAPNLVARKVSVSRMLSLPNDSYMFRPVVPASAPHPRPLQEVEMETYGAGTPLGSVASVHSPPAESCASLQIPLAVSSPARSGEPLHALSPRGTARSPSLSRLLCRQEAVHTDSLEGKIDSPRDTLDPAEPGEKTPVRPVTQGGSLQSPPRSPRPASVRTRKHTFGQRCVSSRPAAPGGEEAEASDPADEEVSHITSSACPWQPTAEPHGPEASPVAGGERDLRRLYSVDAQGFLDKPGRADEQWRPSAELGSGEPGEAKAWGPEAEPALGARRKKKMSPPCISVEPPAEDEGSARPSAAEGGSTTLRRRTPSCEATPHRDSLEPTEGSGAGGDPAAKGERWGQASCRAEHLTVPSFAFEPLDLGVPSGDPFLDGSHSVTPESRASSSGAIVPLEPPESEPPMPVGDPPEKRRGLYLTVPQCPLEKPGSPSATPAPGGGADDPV

IC50 [1]: 15.1 µM (active)
SMILES: CCN(CC)CCCCCCCCOC(=O)c1cc(OC)c(OC)c(OC)c1

IC50 [1]: 10.5 µM (active)
SMILES: O=[N+]([O-])c1cccc(S(=O)(=O)Nc2ccc(Cc3ccncc3)cc2)c1

EC50 [2]: 4.52 µM (active)
SMILES: CC1CCCN(C(=O)CSCC(=O)Nc2nc(-c3cccs3)cs2)C1 (stereo not given)

EC50 [2]: 9.23 µM (active)
SMILES: COc1ccc(NC(=O)C2CCCN2S(=O)(=O)c2ccc3c(c2)CCC(=O)N3)cc1 (stereo not given)

EC50 [2]: 4.61 µM (active)
SMILES: Cc1[nH]c2ccccc2c1NC(=O)CN1CCN(c2cccc(C(F)(F)F)c2)CC1

SMILES: O=C(NCCc1ccccc1)c1ccc2c(=O)[nH]c3c(C(=O)NCC4CCCO4)sc(=S)n3c2c1 (stereo not given)
IC50 [1]: 16.6 µM (active)

IC50 [3]: > 100 µM (inactive)
SMILES: O=C(c1cccc(Cl)c1)N(Cc1cccs1)C1CCS(=O)(=O)C1 (stereo not given)

IC50 [4]: 2.43 µM (active)
IC50 [5]: 2.93 µM (active)
SMILES: CCCCCOC(=O)c1ccc(N2C(=O)C3C4C=CC(C4)C3C2=O)cc1 (stereo not given)

IC50 [4]: 2.86 µM (active)
IC50 [5]: 4.75 µM (active)
SMILES: O=C(Nc1cc([N+](=O)[O-])ccc1Cl)C(Sc1ccccc1)c1ccccc1 (stereo not given)

IC50 [6]: > 50 µM (inactive)
SMILES: CSC1=NSC2=NC(=O)/C(=C\c3c(C)[nH]c4ccc(C)cc34)C(=N)N12

IC50 [1]: 10.7 µM (active)
SMILES: CC(C)CN1CCC(Oc2cccc(C(=O)NCCc3ccccc3)c2)CC1

EC50 [2]: 5.41 µM (active)
SMILES: Cc1nc(SCC(=O)NCc2ccc3c(c2)OCO3)c(C#N)c2c1CCCC2

IC50 [3]: > 100 µM (inactive)
SMILES: CCOc1ccccc1NC(=O)C(CC(C)C)NC(=O)C1CCC(C)CC1 (stereo not given)

IC50 [7]: 10.2 µM (active)
SMILES: O=C(CCNC(=O)c1ccccc1)NN=Cc1ccc(Br)o1

AC50 [8]: 3.41 µM (active)
SMILES: COc1ccc(S(=O)(=O)NC2CC3CCC2C3)cc1Cl (stereo not given)

EC50 [2]: 0.496 µM (active)
SMILES: O=C(NCc1ccc2c(c1)OCO2)C1CC(c2ccc(Cl)cc2)=NO1 (stereo not given)

IC50 [3]: > 100 µM (inactive)
EC50 [9]: > 53 µM (inactive)
SMILES: CCN(CC)C(=S)Sc1c(-c2ccccc2)c2cc(Cl)ccc2[nH]c1=O

EC50 [2]: 5.89 µM (active)
SMILES: CCCn1c(NCc2c[nH]c3ccccc23)nc2ccccc21

IC50 [7]: 7.11 µM (active)
SMILES: O=C(Nc1ccc(S(=O)(=O)Nc2nccs2)cc1)c1ccc(O)nc1

SMILES: CCN(CC)P(=O)(c1n(CC)cc[n+]1CC)N(CC)CC
IC50 [7]: 3.98 µM (active)

IC50 [6]: > 50 µM (inactive)
SMILES: CCOC(=O)c1c(NC(=O)c2ccc(Br)o2)sc2c1CCCC2

IC50 [4]: 8.51 µM (active)
IC50 [5]: 9.41 µM (active)
SMILES: O=C(NCc1ccco1)/C(=C\c1cccc([N+](=O)[O-])c1)NC(=O)c1ccco1

IC50 [6]: > 50 µM (inactive)
SMILES: O=C(NCCc1ccccc1)c1cc(=O)c2ccccc2o1

IC50 [7]: 11.7 µM (active)
SMILES: CC(C)CCC(C(=O)NC(C)c1ccccc1)C(=O)NC(C)c1ccccc1 (stereo not given)

IC50 [4]: 5.62 µM (active)
IC50 [5]: 4.58 µM (active)
SMILES: O=C(/C=C/c1cccc([N+](=O)[O-])c1)NCCSc1ccccc1

EC50 [2]: 4.76 µM (active)
SMILES: CCC1Sc2ccccc2N(CC(=O)NCCC2=CCCCC2)C1=O (stereo not given)

SMILES: COc1ccc(-c2sc3ccccc3c2/C=C/c2ccncc2)cc1
AC50 [8]: 3.9 µM (active)
AC50 [10]: 4.57 µM (active)

IC50 [3]: > 100 µM (inactive)
SMILES: Cc1c(CN2CCCC(C(=O)Nc3cccc(-n4cccn4)c3)C2)cnn1C (stereo not given)

IC50 [4]: 9.2 µM (active)
IC50 [5]: 9.66 µM (active)
SMILES: O=C(OCc1ccc([N+](=O)[O-])cc1)C1CCN(S(=O)(=O)c2ccccc2)CC1

IC50 [4]: 11.3 µM (active)
IC50 [5]: 10.4 µM (active)
SMILES: CN(CC(=O)Nc1ccc(Cl)c(C(F)(F)F)c1)C(=O)C1CC(=O)N(c2ccc3c(c2)OCCO3)C1 (stereo not given)

IC50 [11]: 32 µM (active)
IC50 [6]: > 50 µM (inactive)
SMILES: COc1cc(/C=N/n2cnnc2)ccc1OC(=O)c1cccnc1

— ChEMBL document CHEMBL1201862, “PubChem BioAssay data set” (2004)
